Results from PubChem BioAssay (NCI).
“And” between values parts separate entries of the source, which are not always exact repeats. Equal entries are not always repeated.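 48-hour exposure; five concentrations; linearly interpolated endpoints. GI50 = concentration required for 50% inhibition of growth. The concentration for full growth arrest is given as TGI.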 *1 amine or outer side, *2 acyl side, *3 side chain or, on linkers, in order; H or OH if unused. Where a SMILES comes first, the peptide text is derived from it. Bridges are numbered along the chain shown (N, C = ends). Roman numbers before positions name the chains, in order. [ ]: non-standard residue; d: D form. Actinocin(1to9) = Cc1c2oc3c(C)ccc(C(=O)[*:2])c3nc-2c(C(=O)[*:1])c(N)c1=O; NMeV = CN[CH](C(=O)O)C(C)C; Sar = CNCC(=O)O

What was measured:
Assay in all cases: DTP human tumour cell line panel, 48 h
NCI-H23 lung = test system: NCI-H23 lung
MCF7 breast = test system: MCF7 breast
SNB-75 CNS = test system: SNB-75 CNS
OVCAR-8 ovarian = test system: OVCAR-8 ovarian
MALME-3M melanoma = test system: MALME-3M melanoma
NCI-H460 lung = test system: NCI-H460 lung
UACC-257 melanoma = test system: UACC-257 melanoma
NCI-H522 lung = test system: NCI-H522 lung
MDA-MB-231 breast = test system: MDA-MB-231 breast
LOX IMVI melanoma = test system: LOX IMVI melanoma
A498 renal = test system: A498 renal
MDA-MB-435 = test system: MDA-MB-435
SNB-19 CNS = test system: SNB-19 CNS
TK-10 renal = test system: TK-10 renal
EKVX NSCLC = test system: EKVX NSCLC
SF-539 CNS = test system: SF-539 CNS
SK-OV-3 ovarian = test system: SK-OV-3 ovarian
NCI/ADR-RES ovarian = test system: NCI/ADR-RES ovarian

SMILES | TGI (NCI-H23 lung) | TGI (MCF7 breast) | TGI (SNB-75 CNS) | TGI (OVCAR-8 ovarian) | TGI (MALME-3M melanoma) | TGI (NCI-H460 lung) | TGI (UACC-257 melanoma) | TGI (NCI-H522 lung) | TGI (MDA-MB-231 breast) | TGI (LOX IMVI melanoma) | TGI (A498 renal) | TGI (MDA-MB-435) | TGI (SNB-19 CNS) | TGI (TK-10 renal) | TGI (EKVX NSCLC) | TGI (SF-539 CNS) | TGI (SK-OV-3 ovarian) | TGI (NCI/ADR-RES ovarian) | GI50 (EKVX NSCLC) | GI50 (SNB-75 CNS)
Cc1ccc(N=NC(=O)NNc2ccc(C)cc2Br)c(Br)c1 | > 100 µM | 41.3 µM | > 100 µM | 62 µM | 36.4 µM | 47.3 µM | 79.8 µM | 55.3 µM | > 100 µM | 34.5 µM | 52.3 µM | > 100 µM | > 100 µM | 86.6 µM | – | – | – | – | – | –
O=C1NC(=Nc2ccccc2Cl)N/C1=C\c1c(Cl)cccc1Cl | > 100 µM | > 100 µM | 76.3 µM | > 100 µM | > 100 µM | 68.2 µM | 79.8 µM | 58.7 µM | – | > 100 µM | > 100 µM | > 100 µM | > 100 µM | 71.7 µM | 79.3 µM | > 100 µM | > 100 µM | 86 µM | – | –
CC1=C(C)C2(C#N)C(=O)N3C(=NC(c4ccco4)NC3c3ccco3)C2(C#N)C(c2ccco2)N1 (stereo not drawn) | > 100 µM | > 100 µM | – | > 100 µM | > 100 µM | > 100 µM | > 100 µM | > 100 µM | > 100 µM | > 100 µM | > 100 µM | > 100 µM | > 100 µM | > 100 µM | > 100 µM | – | > 100 µM | > 100 µM | – | –
CCN(CC)CCC(=O)c1ccc(Cl)c(Cl)c1 | – | 28.8 µM | 80.1 µM | > 100 µM | 41.7 µM | > 100 µM | > 100 µM | 32.8 µM | – | 30.1 µM | 76 µM | 30.8 µM | > 100 µM | – | > 100 µM | – | > 100 µM | > 100 µM | – | –
COC1(OC)CCCCCCCCC(OC)(OC)CCCCCCCC1 | > 100 µM | > 100 µM | > 100 µM | > 100 µM | > 100 µM | > 100 µM | > 100 µM | > 100 µM | – | > 100 µM | > 100 µM | > 100 µM | > 100 µM | > 100 µM | > 100 µM | > 100 µM | > 100 µM | > 100 µM | – | –
Cc1c(N)c(C#N)c2n(C)c3ncccc3n2c1=O | > 100 µM | – | > 100 µM | > 100 µM | > 100 µM | > 100 µM | > 100 µM | > 100 µM | – | > 100 µM | – | – | > 100 µM | > 100 µM | > 100 µM | > 100 µM | > 100 µM | – | – | –
CCN(CC)CC(C(C)=O)C(c1ccccc1)c1c(O)c2ccccc2oc1=O (stereo not drawn) | – | – | > 100 µM | > 100 µM | > 100 µM | > 100 µM | > 100 µM | > 100 µM | – | > 100 µM | > 100 µM | – | > 100 µM | > 100 µM | > 100 µM | > 100 µM | > 100 µM | – | – | –
COC(=O)CSc1cc(Cl)c(C)cc1S(=O)(=O)Nc1n[nH]c(N)n1 | > 10 µM | > 10 µM | > 10 µM | > 10 µM | > 10 µM | > 10 µM | > 10 µM | > 10 µM | – | > 10 µM | > 10 µM | – | > 10 µM | > 10 µM | > 10 µM | > 10 µM | > 10 µM | > 10 µM | – | –
O=c1nc(N2CCCCC2)sc2[nH]c3ccccc3c12 | 26.2 µM | – | > 100 µM | > 100 µM | > 100 µM | > 100 µM | > 100 µM | > 100 µM | > 100 µM | > 100 µM | > 100 µM | > 100 µM | > 100 µM | > 100 µM | > 100 µM | > 100 µM | > 100 µM | 25.7 µM | – | –
C#CCNCC(=O)O | > 100 µM | > 100 µM | – | > 100 µM | > 100 µM | – | > 100 µM | > 100 µM | > 100 µM | – | > 100 µM | > 100 µM | > 100 µM | > 100 µM | > 100 µM | > 100 µM | > 100 µM | > 100 µM | – | –
CCc1n[nH]c(=O)n1-n1c(C)ccc1C | – | > 100 µM | > 100 µM | > 100 µM | > 100 µM | > 100 µM | > 100 µM | > 100 µM | > 100 µM | > 100 µM | > 100 µM | > 100 µM | > 100 µM | > 100 µM | > 100 µM | – | > 100 µM | > 100 µM | – | –
CC12CCC(=O)N1[C@@H](c1ccccc1)[C@@H](c1ccccc1)O2 (stereo partly drawn) | – | – | > 100 µM | > 100 µM | > 100 µM | > 100 µM | > 100 µM | > 100 µM | – | > 100 µM | > 100 µM | – | > 100 µM | – | – | > 100 µM | > 100 µM | – | – | –
COc1ccc(CC2NC(=O)C(NC(=O)c3c4nc5c(C(=O)NC6C(=O)NC(Cc7ccc(OC)cc7)C(=O)N7CCCC7C(=O)N(C)CC(=O)N(C)C(C(C)C)C(=O)OC6C)ccc(C)c5oc-4c(C)c(=O)c3N)C(C)OC(=O)C(C(C)C)N(C)C(=O)CN(C)C(=O)C3CCCN3C2=O)cc1 (stereo not drawn) (I: TY(Me)P[Sar][NMeV] / II: TY(Me)P[Sar][NMeV]; ester I:1-I:C, II:1-II:C; linker I:N-II:N via Actinocin(1to9); configuration not given here) | 0.126 µM | – | 0.0339 µM and 0.324 µM | – | 0.0374 µM | – | 0.0349 µM | 0.0234 µM and 0.0235 µM | 0.731 µM | 0.0144 µM | 0.0242 µM | 0.0265 µM | 3.43 µM and 0.539 µM | – | 3.27 µM and 0.862 µM | 0.0257 µM | 12.6 µM | – | 0.0514 µM | 0.0552 µM
[N-]=[N+]=NC1(Cc2ccccc2)C(=O)Nc2ccccc2C1=O (stereo not drawn) | > 100 µM | – | > 100 µM | > 100 µM | > 100 µM | > 100 µM | > 100 µM | > 100 µM | – | > 100 µM | > 100 µM | – | > 100 µM | > 100 µM | > 100 µM | > 100 µM | > 100 µM | – | – | –
